Data: paper PMC9867837 (Cancer letters, 2022)

Key:
pYStat3C468A = biological target: T1, pYStat3C468A (Homo sapiens, UniProt P40763, C468A); assay: EMSA with purified mutant pYStat3C468A; assay type: biochemical
T1 construct: made in house; host or cells: E. coli BL21(DE3) TKB1 (inducible tyrosine kinase)
Text: This construct was used to generate the mutants, Stat3C328A, Stat3C426A, Stat3C468A, and Stat3C542S, as described in detail in Supplementary Information “Methods”.
The expression of un-phosphorylated and tyrosine phosphorylated His-tagged recombinant wtStat3 and mutant Stat3 proteins in BL21 (DE3) bacterial cells is described in detail in Supplementary Information “Methods”.
Given the MS data, we conducted site-directed mutagenesis analysis for the effects of Cys mutations (Cys-to-Ala or Cys-to-Ser mutations) on the inhibitory activities or potencies of the compounds. […] Purified, phosphorylated wild-type (wt)Stat3, and phosphorylated mutants, Stat3C328A, Stat3C426A, Stat3C468A, and Stat3C542S protein samples of equal amounts were pre-incubated with or without 3 μM H182 for 30 min at room temperature prior to incubation with the radiolabeled hSIE probe that binds Stat3 and subjecting to EMSA analysis. […] Focusing on the C426 and C468, we next conducted dose-response studies for effects of H182 on Stat3C426A and Stat3C468A. […] Equal proteins used in the DNA-binding assay/EMSA analysis are shown by SDS-PAGE Coomassie staining (Fig. 3B, lower). […]
In another case, the nuclear extract was pre-incubated with the radiolabeled probe for 30 min at 30 °C prior to incubation with increasing concentration of H182 at room temperature for 30 min and subjecting to EMSA analysis. Bands corresponding to Stats DNA- binding activities were scanned and quantified using ImageJ and plotted as a percentage of control (vehicle) against the concentration of the inhibitor, from which the IC50 values were derived . […]
These studies were performed as previously reported using the v-Src -transformed NIH3T3/v-Src fibroblasts [1 -5] . […] Luciferase activity was normalized to total protein concentration of cell lysate, which was determined by Bradford assay (Bio-Rad, Hercules, CA) . […]

MDA-MB-231 cells = assay: Annexin V/propidium iodide staining with flow cytometry; assay type: cell-based, human; settings: 3 μM H182 for 3 h
Experimental: For apoptosis analysis, annexin V/propidium iodide (PI) staining was performed. Details are presented in Supplementary Information, “Methods”. […]
software and Prism GraphPad software (San Diego, CA), using the one-site model. Control experiments were carried out by titration H182 into buffer, buffer into Stat3, and buffer into buffer. The three controls were used as a composite for the ITC experiment to subtract the heat of dilution and background noise from […]
1.2.11. Wound healing assay for migration
Studies were performed as previously reported [1 -3]. Briefly, cells were cultured in 6-well plates, and the monolayer of cells was scratched with a p10 pipet tip. Subsequently, fresh medium containing inhibitors or DMSO (control) was added, and then immediately, cells were imaged with a Canon Powershot A640 digital camera under a phase contrast with the Zeiss Axiovert 200 inverted microscope at 10X magnification and noted as the zero time-point. Following culture for 22 h to allow cells to migrate into the denuded area, the culture was then imaged again at the same field that was marked on the plate.
1.2.12. Annexin V binding/apoptosis and flow cytometric analysis
For apoptosis analysis, annexin V/propidium iodide (PI) staining was performed. […] The annexin V- and/or PI-positive cells were analyzed by FACScan flow cytometer (BD Biosciences) and data was analyzed using FlowJo software. […]

T1 sequence (P40763 127-711 C468A): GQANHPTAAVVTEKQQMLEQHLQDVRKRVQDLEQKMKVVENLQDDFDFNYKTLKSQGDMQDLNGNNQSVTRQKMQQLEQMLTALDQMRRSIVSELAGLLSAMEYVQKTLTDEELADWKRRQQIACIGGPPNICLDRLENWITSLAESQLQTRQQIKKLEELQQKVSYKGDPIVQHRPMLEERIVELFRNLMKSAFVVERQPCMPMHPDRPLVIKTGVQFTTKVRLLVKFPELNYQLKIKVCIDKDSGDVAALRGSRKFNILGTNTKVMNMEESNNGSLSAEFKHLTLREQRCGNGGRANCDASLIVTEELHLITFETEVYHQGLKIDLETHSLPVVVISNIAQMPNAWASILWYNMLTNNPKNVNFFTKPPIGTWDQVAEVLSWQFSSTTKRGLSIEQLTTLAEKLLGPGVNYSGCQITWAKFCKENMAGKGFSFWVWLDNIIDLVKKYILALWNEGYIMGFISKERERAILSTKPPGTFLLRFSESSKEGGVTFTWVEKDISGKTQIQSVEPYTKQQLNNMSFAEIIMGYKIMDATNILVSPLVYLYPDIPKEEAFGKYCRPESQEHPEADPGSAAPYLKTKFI

SMILES: O=C([C@H]1CCN1S(=O)(=O)c1c(F)c(F)c(F)c(F)c1F)N(Cc1ccc(C2CCCCC2)cn1)c1ccc2c(=O)[nH]ncc2c1 [Compound H182]
- Effect on DNA-binding activity of pYStat3C468A (pYStat3C468A; 3 μM H182, 30 min): unaffected
- Effect on pYStat3C468A activity (pYStat3C468A; 10 μM H182): no effect
- IC50 (pYStat3C468A; EMSA, 0–50 μM H182, 30 min): 40 µM
- Annexin V/PI double-positive staining (MDA-MB-231 cells): roughly 12%
